The subject of data set [1] is human head and neck cancer cell line (HTB41/-43). The data set is described as follows: Intratumoral injection of head and neck cancer tumors in nude mice. Type of data set: in vivo. The note with it: tumors in the abdomen injected, over 10 days; K-21 at 5% by weight. On the procedure:
Nude mice were injected with human head and neck cancer cell line (HTB41/-43). […] The size of the sham injected tumors grew most rapidly over 10 days.

The test system of another data set is shaved skin of mice. The data set is described as follows: Topical irritation and DMBA skin tumor study in mice. The note with it: Group II.
The subject of a further data set is IL-1. The data set is described as follows: Flow cytometry of skin cells for the inflammatory cytokine IL-1. The format is in vivo, C57/BL6 mice. The note with it: Group II, DMBA alone. On the procedure:
These animals received no other treatment.
Flow cytometry analyses: The skin and some associated soft tissues on the backs of all mice were excised. Representative portions of the skin and dermis were prepared for flow cytometry analysis by being divided into single cell suspensins using a 100 μm cell strainer followed by centrifugation (1500 rpm, 10 mm). Analysis of cells for detection of the inflammatory cytokine IL-1 was performed by fixing, permeabilizing, and staining of cells and running flow cyctopmetry using a FACS Calibur BD Flow Cytometer.
In general terms: In flow cytometry, cells or beads pass a laser one at a time.

From patent US20180064738A1, “METHOD OF TREATING INFECTIONS USING SILOXANE DERIVATIVES” (priority 2014, published 2018) come the findings set out here.

Method for shaved skin of mice: K-21 was dissolved in acetone to enhance its ability to wet the shaved skin on the backs of experimental mice. Mice in the positive control group were treated with a topical chemical carcinogenic agent, dimethybena(α)anthracene (DMBA), dissolved in acetone.
Thirty adult C57/BL6 mice were randomly divided into three groups of ten animals each to evaluate the topical irritation and potential anti-inflammatory properties of K-21. The hair on the back of all mice were shaved off with electric clippers.
Group 1 animals received topical application of K-21 (100 μg/100 μL) in acetone twice a week for two weeks (days 3, 6, 9, and 12) over the shaved area. These animals received no other treatment. Group II mice received a topical single dose of DMBA (100 μg/100 μL) in acetone over the shaved skin on the animals back on day 7. Group III animals received the same treatment as Group II mice on day 7 plus they were treated with topical K-21, twice a week before (days 3, 6) and one week after (days 9 and 12) a single DMBA application on day 7.
All animals were weighed daily, before and during the study to compare the weight gains of animals in all three groups. The behavior (eating, drinking, etc.) was monitored on a daily basis to determine if there was any gross skin irritation or initiation of tumors. […]

In the case of `N.N.[Cl][Pt][Cl]` [Cisplatin], the tumor growth entry in data set [1] is recorded as “grew the least”.

Take `Cc1c2ccccc2c(C)c2c1ccc1ccccc12` [DMBA, dimethybena(α)anthracene]: in the data set with shaved skin of mice (single topical dose of DMBA on day 7, sacrificed day 14), the tumor formation result is “Tumors formed in all ten”. Besides, the tumor diameter entry in the data set on shaved skin of mice (single topical dose of DMBA, day 14) was “about 0.5 cm”. Further, in the data set on IL-1, the “IL-1 positive cells of the total number of cells” value stood at 6%.
